Test results: US20050037990A1, “Disubstituted 7,9-guanines halides as telomerase inhibitors” (priority 2001, published 2005)

biological target: T1, telomerase enzyme (Homo sapiens, UniProt O14746); test: Flash Plate-based telomerase assay; assay type: biochemical; settings: telomerase inhibition; two hours of incubation at 37°; Flash Plate hybridization readout
T1 construct: telomerase enzyme diluted in a buffer
Description: The telomerase activity of the compounds of the invention has been evaluated using a Flash Plate-based assay. […] Other methods for determining the inhibitory concentration of a compound of the invention against telomerase can be employed as will be apparent to a person skilled in the art based on the disclosure herein.
Briefly, the assay mixture is costituted by: • telomerase enzyme diluted in a buffer, the composition of which has been selected to maintain the enzyme activity stable along the duration of the assay. • dNTPs, deoxynucleotides 5′-triphosphate. • biotynilated oligo as primer. • increasing concentrations of test compounds/positive control.
After two hours of incubation at 37° degrees the telomeric repeats added are evaluated by hybridization in solution with a 3′-labeled short oligonucleotide probe.
The extent of hybridization is then quantitated by transferring the reaction mixture in a streptavidin-coated flash plate, where the binding between biotin and streptavidin occurs.
The telomerase activity is proportional to the radioactivity measured and the inhibitory activity of the compounds is evaluated as IC50 using the Sigma Plot fit program.
With the above-described method, IC50 values of the compounds of the present invention were determined.

T1 sequence (O14746 whole entry): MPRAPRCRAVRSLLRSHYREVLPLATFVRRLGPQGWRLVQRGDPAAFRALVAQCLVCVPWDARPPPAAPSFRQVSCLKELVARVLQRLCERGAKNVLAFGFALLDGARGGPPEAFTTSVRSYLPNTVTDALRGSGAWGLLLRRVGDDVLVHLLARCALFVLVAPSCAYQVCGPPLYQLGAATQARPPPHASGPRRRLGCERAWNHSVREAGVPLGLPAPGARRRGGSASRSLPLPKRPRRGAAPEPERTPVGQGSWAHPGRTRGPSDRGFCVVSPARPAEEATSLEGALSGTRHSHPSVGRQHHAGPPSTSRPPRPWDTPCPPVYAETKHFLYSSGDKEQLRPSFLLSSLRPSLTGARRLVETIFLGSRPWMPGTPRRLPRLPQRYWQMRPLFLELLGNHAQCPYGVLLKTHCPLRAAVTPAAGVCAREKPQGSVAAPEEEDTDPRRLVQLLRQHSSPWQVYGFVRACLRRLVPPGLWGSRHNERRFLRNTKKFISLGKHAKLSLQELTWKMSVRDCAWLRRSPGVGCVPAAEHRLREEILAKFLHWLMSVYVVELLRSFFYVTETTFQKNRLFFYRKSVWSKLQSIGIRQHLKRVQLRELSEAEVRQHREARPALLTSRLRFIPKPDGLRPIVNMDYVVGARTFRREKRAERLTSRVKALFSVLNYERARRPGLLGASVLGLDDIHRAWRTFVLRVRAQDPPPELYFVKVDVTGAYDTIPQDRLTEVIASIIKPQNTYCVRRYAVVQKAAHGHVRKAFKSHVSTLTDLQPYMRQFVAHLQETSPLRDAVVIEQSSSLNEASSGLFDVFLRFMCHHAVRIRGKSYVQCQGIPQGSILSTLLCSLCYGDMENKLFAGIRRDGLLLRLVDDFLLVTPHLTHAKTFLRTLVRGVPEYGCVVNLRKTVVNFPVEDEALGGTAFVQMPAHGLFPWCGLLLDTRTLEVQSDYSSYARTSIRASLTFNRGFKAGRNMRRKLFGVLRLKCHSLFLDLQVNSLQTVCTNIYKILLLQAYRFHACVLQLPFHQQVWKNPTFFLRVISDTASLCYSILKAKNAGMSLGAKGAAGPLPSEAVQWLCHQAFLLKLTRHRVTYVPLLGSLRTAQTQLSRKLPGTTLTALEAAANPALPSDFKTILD

Going from `Nc1nc2c(c(=O)[nH]1)[n+](Cc1ccc3ccccc3c1)cn2Cc1ccc2ccccc2c1` [Compound 1, 2-amino-7,9-bis(2-naphthylmethyl)-6-oxo-6,9-dihydro-1H-purin-7-ium bromide] to `Nc1nc2c(c(=O)[nH]1)[n+](Cc1ccc(-c3ccccc3)cc1)cn2Cc1ccc2ccccc2c1` [Compound 7, 2-amino-7-([1,1′-biphenyl]-4-ylmethyl)-9-(2-naphthylmethyl)-6-oxo-6,9-dihydro-1H-purin-7-ium bromide], the IC50 falls from 10 µM to 4 µM (2.5-fold). The second is the more potent here.

Compared with `Nc1nc2c(c(=O)[nH]1)[n+](Cc1ccc(-c3ccccc3)cc1)cn2Cc1ccc(-c2ccccc2)cc1` [Compound 2, 2-amino-7,9-bis[(1,1′-biphenyl)-4-ylmethyl]-6-oxo-6,9-dihydro-1H-purin-7-ium bromide], `Nc1nc2c(c(=O)[nH]1)[n+](Cc1ccc(Cl)c(Cl)c1)cn2Cc1ccc(Cl)c(Cl)c1` [Compound 4, 2-amino-7,9-bis(3,4-dichlorobenzyl)-6-oxo-6,9-dihydro-1H-purin-7-ium bromide] is 3.3-fold higher in IC50: 3 µM for the first, 10 µM for the second. The first is the more potent here.
